The pEC50 is −log10 of the EC50, conventionally taken in molar units.

pEC50: −log10 of the molar value. Where a name gives a salt, the structure may show the parent alone. A value given as a limit tells only on which side of the number the result lay.

The values that follow come from US9505769B2 (ASCENEURON SA, priority 2013, dated 2016).

The first test has as its target T1, human muscarinic acetylcholine M1 receptor (Homo sapiens, UniProt P11229).
T1 construct: expressed in transfected cells; host or cells: CHO-K1
T1 sequence (P11229 1-460): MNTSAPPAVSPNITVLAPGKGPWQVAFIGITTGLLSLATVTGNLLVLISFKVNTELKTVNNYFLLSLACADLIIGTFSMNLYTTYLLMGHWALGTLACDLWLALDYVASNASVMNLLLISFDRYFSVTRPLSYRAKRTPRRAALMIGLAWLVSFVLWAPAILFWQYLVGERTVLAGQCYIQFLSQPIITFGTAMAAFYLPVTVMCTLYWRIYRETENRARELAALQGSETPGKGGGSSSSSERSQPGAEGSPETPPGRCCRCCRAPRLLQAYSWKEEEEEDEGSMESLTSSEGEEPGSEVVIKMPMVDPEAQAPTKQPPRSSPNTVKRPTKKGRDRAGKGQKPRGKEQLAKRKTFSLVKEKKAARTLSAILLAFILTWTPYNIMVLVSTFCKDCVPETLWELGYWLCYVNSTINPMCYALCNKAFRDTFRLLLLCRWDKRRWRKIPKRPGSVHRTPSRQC
The experiment in a line: M1 PAM Assay (IP-One HTRF, IP1 accumulation in M1-CHO cells). Format: cell-based.
Conditions: not given
As for the experimental part:
Then diluted compounds (0.6% DMSO final concentration) are added together with EC20 of acetylcholine and incubated with the cells for 30 min at 37° C., 5% CO2.
CHO-K1 cells stably transfected with human muscarinic acetylcholine M1 receptor are cultured in Ham's F12 medium containing 10% heat inactivated fetal calf serum, 2 mM L-glutamine and Penicillin-Streptomycin grown in a humidified atmosphere at 5% CO2/95% air at 37° C.
Regarding `O=C(c1ccc(F)cc1O[C@H]1C[C@H]2CC[C@@H](C1)N2CCO)N1Cc2nn3cc(Cl)cnc3c2C1` (single isomer, unassigned) [Example 50, (3-chloro-7H-pyrrolo[3′,4′:3,4]pyrazolo[1,5-a]pyrimidin-8(9H)-yl)(4-fluoro-2-{[(3-endo)-8-(2-hydroxyethyl)-8-azabicyclo[3.2.1]oct-3-yl]oxy}phenyl)methanone], the pEC50 was 6.00 to 6.70.
The same measure, in the same setting: to `N#CCN1[C@@H]2CC[C@H]1C[C@@H](Oc1cc(F)ccc1C(=O)N1Cc3nn4cc(Cl)cnc4c3C1)C2` [Example 66, [(3endo)-3-{2[(3-chloro-7H-pyrrolo[3′,4′:3,4]pyrazolo[1,5-a]pyrimidin-8(9H)-yl)carbonyl]-5-fluorophenoxy}-8-azabicyclo[3.2.1]oct-8-yl]acetonitrile] belongs 6.00 to 6.70.

The same test, now with this note: CHO-K1 cells stably transfected with human M1 receptor; compounds added with EC20 of acetylcholine (25 nM), 30 min; intracellular IP1 by IP-One HTRF; read-out: M1 PAM EC50.
As to `Cc1nc2c3c(nn2c(C)c1Cl)CN(C(=O)c1ccc(F)cc1O[C@H]1CNC[C@@H]1O)C3` (racemic) [Example 27, (anti)-(6-Chloro-5,7-dimethyl-1H,3H-2,4,7a,8-tetraaza-cyclopenta[a]inden-2-yl)-[4-fluoro-2-(4-hydroxy-pyrrolidin-3-yloxy)-phenyl]-methanone], the pEC50 is 6.00 to 6.70.
Still for that read-out and setting: in the case of `Cc1nc2c3c(nn2c(C)c1Cl)CN(C(=O)c1ccccc1O[C@H]1CCNC[C@@H]1O)C3` (single isomer, unassigned) [Example 5] it was 6.00 to 6.70; in that of `Cc1nc2c3c(nn2c(C)c1Cl)C(CO)N(C(=O)c1ccccc1OC1CCN(C)CC1)C3` (centres unmarked) [Example 23, (6-Chloro-1-hydroxymethyl-5,7-dimethyl-1H,3H-2,4,7a,8-tetraaza-cyclopenta[a]inden-2yl)-[2-(1-methyl-piperidin-4-yloxy)-phenyl]-methanone], 5.52 to 6.00.
Still for that read-out and setting: to `O=C(c1ccc(F)cc1OC1CCNCC1)N1Cc2nn3cc(Cl)cnc3c2C1` [Example 33, (3-chloro-7H-pyrrolo[3′,4′:3,4]pyrazolo[1,5-a]pyrimidin-8(9H)-yl)(4-fluoro-2-(piperidin-4-yloxy)phenyl)methanone hydrochloride] belongs 6.00 to 6.70; to `Cc1nc2c3c(nn2c(C)c1Cl)CN(C(=O)c1ccc(F)cc1O[C@H]1COC[C@@H]1O)C3` (racemic) [Example 26, (anti)-(3-chloro-2,4-dimethyl-7H-pyrrolo[3′,4′:3,4]pyrazolo[1,5-a]pyrimidin-8(9H)-yl)(4-fluoro-2-((4-hydroxytetrahydrofuran-3-yl)oxy)phenyl)methanone], 5.52 to 6.00.
The same measure, in the same setting: in the case of `Cc1nc2c3c(nn2c(C)c1Cl)CN(C(=O)c1ccc(F)cc1OC1CCN(CC(O)C(F)(F)F)CC1)C3` (centres unmarked) [Example 75, (6-Chloro-5,7-dimethyl-1H,3H-2,4,7a,8-tetraaza-cyclopenta[a]inden-2-yl)-{4-fluoro-2-[1-(3,3,3-trifluoro-2-hydroxy-propyl)-piperidin-4-yloxy]-phenyl}-methanone] it was 6.00 to 6.70; in that of `Cc1nc2c3c(nn2c(C)c1Cl)CN(C(=O)c1ccc(F)cc1O[C@H]1CCN[C@@H](C)C1)C3` (stereo in doubt) [Example 48, (3-chloro-2,4-dimethyl-7H-pyrrolo[3′,4′:3,4]pyrazolo[1,5-a]pyrimidin-8(9H)-yl)(4-fluoro-2-((2-methylpiperidin-4-yl)oxy)phenyl)methanone hydrochloride], 6.00 to 6.70.
For the molecule `CCCN1CCC(Oc2cc(F)ccc2C(=O)N2Cc3nn4c(C)c(Cl)c(C)nc4c3C2)CC1` [Example 77, (6-Chloro-5,7-dimethyl-1H,3H-2,4,7a,8-tetraaza-cyclopenta[a]inden-2-yl)-[4-fluoro-2-(1-propyl-piperidin-4-yloxy)-phenyl]-methanone], the pEC50 was above 6.70.
On the same count and under the same terms, to `Cc1nc2c3c(nn2c(C)c1Cl)CN(C(=O)c1ccc(F)cc1OC1CCN(CCO)CC1)C3` [Example 32, (6-Chloro-5,7-dimethyl-1H,3H-2,4,7a,8-tetraaza-cyclopenta[a]inden-2-yl)-{4-fluoro-2-[1-(2-hydroxy-ethyl)-piperidin-4-yloxy]-phenyl}-methanone] belongs above 6.70; to `Cc1nc2c3c(nn2c(C)c1Cl)CN(C(=O)c1ccc(F)cc1OCCN1CCC[C@H]1C)C3` (single isomer, unassigned) [Example 44], 5.52 to 6.00; to `Cc1nc2c3c(nn2c(C)c1Cl)CN(C(=O)c1ccc(F)cc1OC1CN(CCO)C1)C3` [Example 30, (3-chloro-2,4-dimethyl-7H-pyrrolo[3′,4′:3,4]pyrazolo[1,5-a]pyrimidin-8(9H)-yl)(4-fluoro-2-((1-(2-hydroxyethyl)azetidin-3-yl)oxy)phenyl)methanone], 6.00 to 6.70.
On the same count and under the same terms, in the case of `Cc1nc2c3c(nn2c(C)c1Cl)CN(C(=O)c1ccccc1O[C@H]1CCCC[C@@H]1O)C3` (racemic) [Example 17, (anti)-(3-chloro-2,4-dimethyl-7H-pyrrolo[3′,4′:3,4]pyrazolo[1,5-a]pyrimidin-8(9H)-yl)(2-((2-hydroxycyclohexyl)oxy)phenyl)methanone] it was 5.52 to 6.00.
Still for that read-out and setting: in the case of `Cc1nc2c3c(nn2c(C)c1Cl)CN(C(=O)c1ccc(F)cc1O[C@@H]1CCNC1=O)C3` [Example 11, (R)-3-(2-(3-chloro-2,4-dimethyl-8,9-dihydro-7H-pyrrolo[3′,4′:3,4]pyrazolo[1,5-a]pyrimidine-8-carbonyl)-5-fluorophenoxy)pyrrolidin-2-one] it was 6.00 to 6.70.
For the molecule `O=C(c1ccc(F)cc1O[C@H]1C[C@H]2CC[C@@H](C1)N2CC(F)F)N1Cc2nn3cc(Cl)cnc3c2C1` [Example 65, (3-chloro-7H-pyrrolo[3′,4′:3,4]pyrazolo[1,5-a]pyrimidin-8(9H)-yl)(2-{[(3-endo)-8-(2,2-difluoroethyl)-8-azabicyclo[3.2.1]oct-3-yl]oxy}-4-fluorophenyl)methanone], the pEC50 is 6.00 to 6.70.
As for `Cc1nc2c3c(nn2c(C)c1Cl)CN(C(=O)c1ccc(F)cc1O[C@H]1CC[C@H](O)CC1)C3` (single isomer, unassigned) [Example 41, (anti)-(6-Chloro-5,7-dimethyl-1H,3H-2,4,7a8-tetraaza-cyclopenta[a]inden-2-yl)-[4-fluoro-2-(4-hydroxy-cyclohexyloxy)-phenyl]-methanone], the pEC50 is above 6.70.
Same read-out and setting: to “(syn)-(6-Chloro-5,7-dimethyl-1H,3H-2,4,7a,8-tetraaza-cyclopenta[a]inden-2-yl)-[4-fluoro-2-(4-fluoro-cyclohexyloxy)-phenyl]-methanone or (anti)-(6-Chloro-5,7-dimethyl-1H,3H-2,4,7a,8-tetraaza-cyclopenta[a]inden-2-yl)-[4-fluoro-2-(4-fluoro-cyclohexyloxy)-phenyl]-methanone [Example 54]” belongs 5.52 to 6.00; to `Cc1nc2c3c(nn2c(C)c1Cl)CN(C(=O)c1ccccc1C(C)N1CCNCC1)C3` (centres unmarked) [Example 6], 5.52 to 6.00.
Still for that read-out and setting: to `Cc1nc2c3c(nn2c(C)c1Cl)CN(C(=O)c1ccc(F)cc1O[C@H]1CC[C@@H](O)CC1)C3` (single isomer, unassigned) [Example 49, (syn)-(6-Chloro-5,7-dimethyl-1H,3H-2,4,7a,8-tetraaza-cvclopenta[a]inden-2-yl)-[4-fluoro-2-(4-hydroxy-cyclohexyloxy)-phenyl]-methanone] belongs 6.00 to 6.70; to `CN1CCC(Oc2cc(F)ccc2C(=O)N2Cc3nn4cc(Cl)cnc4c3C2)CC1` [Example 12, (3-chloro-7H-pyrrolo[3′,4′:3,4]pyrazolo[1,5-a]pyrimidin-8(9H)-yl)(4-fluoro-2-((1-methylpiperidin-4-yl)oxy)phenyl)methanone], 6.00 to 6.70; to `Cc1nc2c3c(nn2c(C)c1Cl)CN(C(=O)c1ccc(F)cc1O[C@@H]1CCN[C@@H](C)C1)C3` (stereo in doubt) [Example 24, (3-chloro-2,4-dimethyl-7H-pyrrolo[3′,4′:3,4]pyrazolo[1,5-a]pyrimidin-8(9H)-yl)(4-fluoro-2-((2-methylpiperidin-4-yl)oxy)phenyl)methanone hydrochloride], 6.00 to 6.70.
On to `Cc1nc2c3c(nn2c(C)c1Cl)CN(C(=O)c1ccc(F)cc1O[C@H]1CN(C)C[C@@H]1O)C3` (racemic) [Example 45, (anti)-(6-Chloro-5,7-dimethyl-1H,3H-2,4,7a,8-tetraaza-cyclopenta[a]inden-2-yl)-[4-fluoro-2-(4-hydroxy-1-methyl-pyrrolidin-3-yloxy)-phenyl]-methanone], for which the pEC50 was 6.00 to 6.70.
Same read-out and setting: to `Cc1nc2c3c(nn2c(C)c1Cl)CN(C(=O)c1ccc(F)cc1O[C@H]1CCNC[C@H]1F)C3` (racemic) [Example 18] belongs 6.00 to 6.70.
Same read-out and setting: in the case of `Cc1nc2c3c(nn2c(C)c1Cl)CN(C(=O)c1ccc(F)cc1OCC1(N)CC1)C3` [Example 68, (2-((1-aminocyclopropyl)methoxy)-4-fluorophenyl)(3-chloro-2,4-dimethyl-7H-pyrrolo[3′,4′:3,4]pyrazolo[1,5-a]pyrimidin-8(9H)-yl)methanone] it was 5.52 to 6.00.
The same measure, in the same setting: to `Cc1nc2c3c(nn2c(C)c1Cl)CN(C(=O)c1ccc(F)cc1OC1CCC(F)(F)CC1)C3` [Example 47, (3-chloro-2,4-dimethyl-7H-pyrrolo[3′,4′:3,4]pyrazolo[1,5-a]pyrimidin-8(9H)-yl)(2-((4,4-difluorocyclohexyl)oxy)-4-fluorophenyl)methanone] belongs 5.52 to 6.00.
